Experimental data: PubChem BioAssay (NCI)
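The compound was tested at five concentrations on cells cultured in 96-well plates, with a 48-hour exposure period. Here, GI50 denotes the concentration required for 50% inhibition of growth. The concentration for full growth arrest is given as TGI.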

Key:
Test in all cases: NCI tumour cell line growth inhibition, 48 h; in the data active = GI50 below about 0.43 µM; inactive = the rest
[1] = system: RXF 393 renal
[2] = system: KM20L2 colon
[3] = system: SK-MEL-5 melanoma
[4] = system: OVCAR-3 ovarian
[5] = system: IGROV1 ovarian
[6] = system: NCI-H460 lung
[7] = system: U251 CNS
[8] = system: SK-MEL-28 melanoma
[9] = system: NCI-H23 lung
[10] = system: A498 renal
[11] = system: SW-620 colon
[12] = system: SF-268 CNS
[13] = system: HT29 colon
[14] = system: SK-MEL-2 melanoma
[15] = system: LOX IMVI melanoma
[16] = system: SN12C renal
[17] = system: NCI-H522 lung
[18] = system: UACC-257 melanoma
[19] = system: A549 NSCLC
[20] = system: SK-OV-3 ovarian
[21] = system: MOLT-4 leukemia
[22] = system: HOP-62 NSCLC
[23] = system: MALME-3M melanoma
[24] = system: COLO 205 colon
[25] = system: CAKI-1 renal
[26] = system: UACC-62 melanoma
[27] = system: TK-10 renal
[28] = system: K-562 leukemia
[29] = system: OVCAR-5 ovarian
[30] = system: M14 melanoma
[31] = system: RPMI-8226 leukemia
[32] = system: 786-0 renal
[33] = system: SF-295 CNS
[34] = system: HOP-92 NSCLC
[35] = system: SNB-75 CNS
[36] = system: ACHN renal
[37] = system: KM12 colon
[38] = system: OVCAR-4 ovarian
[39] = system: HCT-15 colon
[40] = system: EKVX NSCLC
[41] = system: DMS 114 small cell lung
[42] = system: HCC-2998 colon
[43] = system: SR leukemia
[44] = system: UO-31 renal
[45] = system: CCRF-CEM leukemia
[46] = system: XF 498 CNS
[47] = system: LXFL 529 NSCLC
[48] = system: HL-60(TB) leukemia
[49] = system: DLD-1 colon
[50] = system: HCT-116 colon
[51] = system: NCI-H226 lung
[52] = system: M19-MEL melanoma
[53] = system: SF-539 CNS
[54] = system: OVCAR-8 ovarian
[55] = system: DMS 273 small cell lung
[56] = system: SNB-19 CNS
[57] = system: SNB-78 CNS

O=C([CH-]C(=O)c1ccccc1)c1ccccc1.O=C([CH-]C(=O)c1ccccc1)c1ccccc1.O=C([CH-]C(=O)c1ccccc1)c1ccccc1.[Cl-].[Zr+4]
71.9 µM: TGI [1]
30.1 µM: TGI [35]
53.8 µM: TGI [6]
inactive: GI50 [1] 15 µM | GI50 [2] 33.2 µM | GI50 [3] 22.9 µM | GI50 [4] 10.6 µM | GI50 [5] 34.3 µM | GI50 [6] 10.8 µM | GI50 [7] 12.1 µM | GI50 [8] 13.2 µM | GI50 [9] 16.9 µM | GI50 [10] 18.7 µM | GI50 [11] 33.8 µM | GI50 [12] 15.8 µM | GI50 [13] 29 µM | GI50 [14] 10 µM | GI50 [15] 26.7 µM | GI50 [16] 35.9 µM | GI50 [17] 11.4 µM | GI50 [18] 17.2 µM | GI50 [19] 33.9 µM | GI50 [20] 37.8 µM | GI50 [21] 9.75 µM | GI50 [22] 20.1 µM | GI50 [23] 19.5 µM | GI50 [24] 25.7 µM | GI50 [25] 12.4 µM | GI50 [26] 20.3 µM | GI50 [27] 27.6 µM | GI50 [28] 8.02 µM | GI50 [29] 53.8 µM | GI50 [30] 12.6 µM | GI50 [31] 16.6 µM | GI50 [32] 18.6 µM | GI50 [33] 12.8 µM | GI50 [34] 8.09 µM | GI50 [35] 3.34 µM | GI50 [36] 22 µM | GI50 [37] 12.4 µM | GI50 [38] 15.9 µM | GI50 [39] 18.2 µM | GI50 [40] 4.03 µM
26.8 µM: TGI [40]
> 100 µM: TGI [2] | TGI [5] | TGI [7] | TGI [11] | TGI [12] | TGI [13] | TGI [15] | TGI [16] | TGI [19] | TGI [21] | TGI [29] | TGI [31] | TGI [33] | TGI [36] | TGI [39]
99.7 µM: TGI [9]
58.6 µM: TGI [10]
36.7 µM: TGI [8]
39 µM: TGI [30]
78 µM: TGI [24]
60.6 µM: TGI [3]
56.6 µM: TGI [37]
91.2 µM: TGI [26]
41.2 µM: TGI [14]
36 µM: TGI [34]
88.4 µM: TGI [38]
60.4 µM: TGI [23]
72.4 µM: TGI [27]
63.8 µM: TGI [25]
39.4 µM: TGI [4]
70.3 µM: TGI [32]
46.6 µM: TGI [17]
25.5 µM: TGI [28]
73.1 µM: TGI [18]
75.5 µM: TGI [22]
74.5 µM: TGI [20]

Clc1ccc(OCc2nnc3n2N=C(c2ccccc2)CS3)c(Cl)c1
91.1 µM: TGI [53]
19.6 µM: TGI [35]
> 100 µM: TGI [1] | TGI [3] | TGI [5] | TGI [6] | TGI [7] | TGI [8] | TGI [41] | TGI [9] | TGI [11] | TGI [42] | TGI [43] | TGI [12] | TGI [13] | TGI [14] | TGI [45] | TGI [46] | TGI [47] | TGI [48] | TGI [17] | TGI [18] | TGI [19] | TGI [20] | TGI [21] | TGI [49] | TGI [50] | TGI [23] | TGI [51] | TGI [25] | TGI [26] | TGI [27] | TGI [28] | TGI [29] | TGI [52] | TGI [32] | TGI [34] | TGI [36] | TGI [54] | TGI [37] | TGI [38] | TGI [39] | TGI [55] | TGI [56] | TGI [57]
8.46 µM: TGI [44]
86.6 µM: TGI [33]
5.87 µM: TGI [15]
76.8 µM: TGI [10]
